Source: patent US9416115B2, “Fused heterocyclic compounds as ion channel modulators” (Gilead Sciences, Inc., priority 2013, dated 2016)

Key:
[1] = target: wild-type human cardiac sodium channel, hNav1.5 (Homo sapiens, UniProt Q14524); assay: Late INa screening assay (QPatch whole cell patch clamp, Tefluthrin-induced late current); assay type: cell-based; conditions: HEK293 hNav1.5, percent block of late INa
How it was run: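 HEK293 cells stably expressing hNav1.5 without beta subunits were whole-cell patch clamped at 23-25 °C, stepping from −120 to −20 mV for 250 ms at 0.1 Hz. Late current (240–265 ms) was induced with 10 μM Tefluthrin, and compounds were added typically at 0.3 or 1 μM. Percent block was taken against 0 Na baseline with rundown correction.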

hNav1.1 (SCN1A) = hNav1.1 (SCN1A) (Homo sapiens, UniProt P35498); assay: Use-dependent inhibition of the CNS Nav1.1 sodium channel; assay type: cell-based; conditions: use-dependent block, 25 Hz, pulse 20, read-out: Nav1.1 UDB 25 Hz 10 uM
Procedure: HEK-293 cells stably expressing wild-type (WT) hNav1.1 (SCN1A, NCBI# AB09354) were obtained from Millipore (Cat. # CYL3009) were used to record INa. Cells are maintained with standard tissue culture procedures and stable channel expression is maintained with 400 ug/mL G418 in the culture medium. Unless otherwise noted, all reagents are purchased from Sigma-Aldrich (St Louis, Mo., U.S.A.).
Assays measuring Use-Dependent Block (UDB) of Nav1.2 are performed on an automated electrophysiology platform, QPatch 16X or QPatch HT (Sophion Bioscience, Copenhagen, Denmark), using the whole cell patch clamp technique to measure currents through the cell membrane. Series resistance compensation is set to 100% and series resistance and whole-cell compensation are performed automatically. Currents stored in the Sophion Bioscience Oracle database (Sophion Bioscience, Copenhagen, Denmark). Analysis is performed using QPatch Assay software and data are compiled in Excel 2010 (Microsoft, Seattle, Wash., U.S.A.).
The internal (pipette) solution consists of (in mM) 105 CsF, 10 NaF, 20 CsCl, 2 EGTA, 10 HEPES, 10 Dextrose with a pH of 7.35 and osmolarity of 300 mOsmol/kg. The external (bath) solution contains in (mM): 145 NaCl, 4 KCl, 1.8 CaCl2, 1 MgCl2, 10 dextrose, 10 HEPES, with a pH of 7.35 and osmolarity of 310 mOsmol/kg. Experiments are carried out at 23-25° C.
Compound stocks are routinely made by the Gilead Sample Bank in vials to 10 mM in dimethyl sulfoxide (DMSO). In some cases, when compounds are not soluble in DMSO, they are made in 100% ethanol. Stocks are sonicated as necessary. […]
Cells are allowed to stabilize for 10 min after establishment of the whole-cell configuration before current is measured. The test compound is applied 2 times at 60 second intervals. After the second compound addition, a 200 second wait period was imposed to allow for equilibration. Leak currents are subtracted by using an online P/4 procedure and all currents are low-pass Bessel filtered at 5 kHz and digitized at […].
Use-dependent block of Nav1.2 peak current is measured during pulse number 20 of a voltage pulse train (0 mV, 20 ms, 20 pulses, 25 Hz) from a holding potential of −120 mV. Currents are normalized to the peak current recorded in response to the first pulse in each frequency train. The voltage protocol for UDB was performed in the absence and presence of compound and percentage inhibition was calculated with respect to the compound free condition. Results are presented as mean percentage inhibition and data analysis is performed using QPatch Assay Software 4.0, and Excel 2002 (Microsoft, Seattle, Wash., U.S.A.).

Chain of wild-type human cardiac sodium channel, hNav1.5 (Q14524 whole entry): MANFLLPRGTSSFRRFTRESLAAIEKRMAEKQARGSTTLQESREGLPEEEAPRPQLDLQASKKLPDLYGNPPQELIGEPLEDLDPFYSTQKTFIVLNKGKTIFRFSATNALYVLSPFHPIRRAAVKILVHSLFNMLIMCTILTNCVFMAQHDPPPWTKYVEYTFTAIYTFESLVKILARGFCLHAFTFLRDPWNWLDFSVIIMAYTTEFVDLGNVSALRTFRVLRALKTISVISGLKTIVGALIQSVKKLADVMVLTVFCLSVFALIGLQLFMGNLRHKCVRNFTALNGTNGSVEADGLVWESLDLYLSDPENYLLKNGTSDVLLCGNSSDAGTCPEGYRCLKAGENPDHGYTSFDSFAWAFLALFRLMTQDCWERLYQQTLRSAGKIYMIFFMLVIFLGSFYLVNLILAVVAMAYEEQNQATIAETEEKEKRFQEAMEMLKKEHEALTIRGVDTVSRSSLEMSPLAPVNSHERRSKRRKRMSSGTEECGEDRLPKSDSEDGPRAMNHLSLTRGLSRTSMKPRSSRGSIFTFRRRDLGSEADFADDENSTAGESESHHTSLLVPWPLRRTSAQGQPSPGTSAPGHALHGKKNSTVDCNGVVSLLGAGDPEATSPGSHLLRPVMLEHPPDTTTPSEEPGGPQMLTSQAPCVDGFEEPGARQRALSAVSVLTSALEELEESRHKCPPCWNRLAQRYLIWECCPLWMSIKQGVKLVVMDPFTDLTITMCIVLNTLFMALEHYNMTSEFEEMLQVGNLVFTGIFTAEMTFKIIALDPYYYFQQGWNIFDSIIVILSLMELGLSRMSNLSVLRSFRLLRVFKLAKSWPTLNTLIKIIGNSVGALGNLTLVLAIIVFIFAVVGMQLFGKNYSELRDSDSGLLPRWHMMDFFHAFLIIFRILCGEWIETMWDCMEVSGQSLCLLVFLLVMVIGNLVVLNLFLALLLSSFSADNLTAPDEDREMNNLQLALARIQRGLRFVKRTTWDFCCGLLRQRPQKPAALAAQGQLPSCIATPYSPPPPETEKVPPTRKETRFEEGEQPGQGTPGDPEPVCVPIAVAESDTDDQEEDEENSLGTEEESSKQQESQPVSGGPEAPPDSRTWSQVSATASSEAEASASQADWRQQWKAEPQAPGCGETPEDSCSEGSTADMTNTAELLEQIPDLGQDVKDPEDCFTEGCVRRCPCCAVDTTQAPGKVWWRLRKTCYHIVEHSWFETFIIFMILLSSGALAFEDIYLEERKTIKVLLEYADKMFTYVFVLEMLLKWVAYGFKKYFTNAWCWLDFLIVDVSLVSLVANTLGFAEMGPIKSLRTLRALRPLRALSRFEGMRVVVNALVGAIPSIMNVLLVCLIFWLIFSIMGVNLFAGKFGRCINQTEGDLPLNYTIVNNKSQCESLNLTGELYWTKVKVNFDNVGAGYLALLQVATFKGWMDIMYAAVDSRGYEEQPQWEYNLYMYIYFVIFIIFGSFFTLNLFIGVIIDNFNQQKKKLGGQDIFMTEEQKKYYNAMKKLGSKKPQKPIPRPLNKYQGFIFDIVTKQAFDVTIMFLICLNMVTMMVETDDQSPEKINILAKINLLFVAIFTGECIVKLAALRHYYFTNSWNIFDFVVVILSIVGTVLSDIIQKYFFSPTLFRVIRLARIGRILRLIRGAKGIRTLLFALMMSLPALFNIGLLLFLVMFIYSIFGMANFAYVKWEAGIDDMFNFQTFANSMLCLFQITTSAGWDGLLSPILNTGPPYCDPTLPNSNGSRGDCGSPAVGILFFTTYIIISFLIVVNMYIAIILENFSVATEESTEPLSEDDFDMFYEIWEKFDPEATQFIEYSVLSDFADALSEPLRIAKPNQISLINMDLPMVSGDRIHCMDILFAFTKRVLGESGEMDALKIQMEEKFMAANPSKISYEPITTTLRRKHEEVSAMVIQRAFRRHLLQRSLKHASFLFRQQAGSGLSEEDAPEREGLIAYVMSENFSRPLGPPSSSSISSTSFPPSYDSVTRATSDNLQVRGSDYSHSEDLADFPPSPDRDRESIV

Structure (SMILES)	inhibition at 0.3 µM [1] [%]	inhibition at 1 µM [1] [%]	inhibition at 10 µM (hNav1.1 (SCN1A)) [%]
Cc1nnc(C(C)Oc2noc3ccc(-c4ccc(OC(F)(F)F)cc4)cc23)o1 (centres unmarked) [Example 153, 3-(1-(5-methyl-1,3,4-oxadiazol-2-yl)ethoxy)-5-(4-(trifluoromethoxy)phenyl)benzo[d]isoxazole]	51.3	67.6	73.1
O=C1CCCN1CCOc1noc2ccc(-c3ccc(OC(F)(F)F)cc3)cc12 [Example 59, 1-(2-((5-(4-(trifluoromethoxy)phenyl)benzo[d]isoxazol-3-yl)oxy)ethyl)pyrrolidin-2-one]	43.7	60.4	46.9
FC(F)(F)Oc1ccc(-c2ccc3onc(-n4cncn4)c3c2)cc1 [Example 136, 3-(1H-1,2,4-triazol-1-yl)-5-(4-(trifluoromethoxy)phenyl)benzo[d]isoxazole]		44.8	< 5
Nc1noc2ccc(-c3ccc(OC(F)(F)F)cc3)cc12 [Example 147, 5-(4-(trifluoromethoxy)phenyl)benzo[d]isoxazol-3-amine]		45.4	32
CN1CCC[C@H]1COc1noc2ccc(-c3ccc(OC(F)(F)F)cc3)cc12 [Example 71, (S)-3-((1-methylpyrrolidin-2-yl)methoxy)-5-(4-(trifluoromethoxy)phenyl)benzo[d]isoxazole]	41.7	81.5	93.8
Cc1nnc(COc2noc3ccc(-c4ccc(OC(F)(F)F)cc4)cc23)s1 [Example 101, 3-((5-methyl-1,3,4-thiadiazol-2-yl)methoxy)-5-(4-(trifluoromethoxy)phenyl)benzo[d]isoxazole]		54.6	< 5
Cc1cc(OC(F)(F)F)ccc1-c1ccc2onc(OCc3ncccn3)c2c1 [Example 3, 5-(2-methyl-4-(trifluoromethoxy)phenyl)-3-(pyrimidin-2-ylmethoxy)benzo[d]isoxazole]		52.6	< 5
Cc1cnc(COc2noc3ccc(-c4ccc(OC(F)(F)F)cc4)cc23)cn1 [Example 73, 3-((5-methylpyrazin-2-yl)methoxy)-5-(4-(trifluoromethoxy)phenyl)benzo[d]isoxazole]	20.4	66.2	10.1
FC(F)(F)Oc1ccc(-c2ccc3onc(OCc4cccnn4)c3c2)cc1 [Example 74, 3-(pyridazin-3-ylmethoxy)-5-(4-(trifluoromethoxy)phenyl)benzo[d]isoxazole]	15.7	60.9	< 5
COc1cc2onc(OCc3ncccn3)c2cc1-c1ccc(Cl)c(F)c1 [Example 13, 5-(4-chloro-3-fluorophenyl)-6-methoxy-3-(pyrimidin-2-ylmethoxy)benzo[d]isoxazole]		35.1	30.8
CN(C)c1noc2ccc(-c3ccc(OC(F)(F)F)cc3)cc12 [Example 133, N,N-dimethyl-5-(4-(trifluoromethoxy)phenyl)benzo[d]isoxazol-3-amine]		45.8	22.1
Fc1cccnc1COc1noc2ccc(-c3ccc(OC(F)(F)F)cc3)cc12 [Example 94, 3-((3-fluoropyridin-2-yl)methoxy)-5-(4-(trifluoromethoxy)phenyl)benzo[d]isoxazole]	35.1	58.7	< 5
Fc1cc(-c2ccc3onc(OCc4ncccn4)c3c2)ccc1Cl [Example 8, 5-(4-chloro-3-fluorophenyl)-3-(pyrimidin-2-ylmethoxy)benzo[d]isoxazole]		52.6	< 5
C[C@@H](N)COc1noc2ccc(-c3ccc(OC(F)(F)F)cc3)cc12 [Example 117, (R)-1-((5-(4-(trifluoromethoxy)phenyl)benzo[d]isoxazol-3-yl)oxy)propan-2-amine]	39.4	78.1	80.9
O=C(COc1noc2ccc(-c3ccc(OC(F)(F)F)cc3)cc12)N1CCCC1 [Example 121, 1-(pyrrolidin-1-yl)-2-((5-(4-(trifluoromethoxy)phenyl)benzo[d]isoxazol-3-yl)oxy)ethan-1-one]	39	77.7	43.6
FC(F)(F)Oc1ccc(-c2ccc3onc(N4CCOCC4)c3c2)cc1 [Example 130, 3-morpholino-5-(4-(trifluoromethoxy)phenyl)benzo[d]isoxazole]		38.3	< 5
FC(F)(F)Oc1ccc(-c2ccc3onc(NCc4ncccn4)c3c2)cc1 [Example 126, N-(pyrimidin-2-ylmethyl)-5-(4-(trifluoromethoxy)phenyl)benzo[d]isoxazol-3-amine]		50	< 5
CC(=O)N1CCC[C@H]1COc1noc2ccc(-c3ccc(OC(F)(F)F)cc3)cc12 [Example 109, (S)-1-(2-(((5-(4-(trifluoromethoxy)phenyl)benzo[d]isoxazol-3-yl)oxy)methyl)pyrrolidin-1-yl)ethan-1-one]	25.3	65.7	57
FC(F)(F)Oc1ccc(-c2ccc3onc(NCCn4cncn4)c3c2)cc1 [Example 137, N-(2-(1H-1,2,4-triazol-1-yl)ethyl)-5-(4-(trifluoromethoxy)phenyl)benzo[d]isoxazol-3-amine]		47.2	82.6
COc1cc2onc(OCc3ncccn3)c2cc1-c1ccc(OC(F)(F)F)c(C)c1 [Example 14, 6-methoxy-5-(3-methyl-4-(trifluoromethoxy)phenyl)-3-(pyrimidin-2-ylmethoxy)benzo[d]isoxazole]		46.7	34.5
Cc1cc(-c2ccc(OC(F)(F)F)cc2)cc2c(OCc3cn(C)nn3)noc12 [Example 87, 7-methyl-3-((1-methyl-1H-1,2,3-triazol-4-yl)methoxy)-5-(4-(trifluoromethoxy)phenyl)benzo[d]isoxazole]	18.4	62.7	90.8
FC(F)(F)Oc1ccc(-c2ccc3onc(OCc4ncco4)c3c2)cc1 [Example 53, 3-(oxazol-2-ylmethoxy)-5-(4-(trifluoromethoxy)phenyl)benzo[d]isoxazole]	31.1	57	< 5
N#CCOc1noc2ccc(-c3ccc(OC(F)(F)F)cc3)cc12 [Example 103, 2-((5-(4-(trifluoromethoxy)phenyl)benzo[d]isoxazol-3-yl)oxy)acetonitrile]		38.9	8.5
FC(F)(F)Oc1ccc(-c2ccc3onc(NCc4ncco4)c3c2)cc1 [Example 156, N-(oxazol-2-ylmethyl)-5-(4-(trifluoromethoxy)phenyl)benzo[d]isoxazol-3-amine]	37.9	62.8	26.5
Cc1cc(-c2ccc(OC(F)(F)F)cc2)cc2c(OCc3ncccn3)noc12 [Example 16, 7-methyl-3-(pyrimidin-2-ylmethoxy)-5-(4-(trifluoromethoxy)phenyl)benzo[d]isoxazole]		54.2	27.3
